From ChEMBL document CHEMBL3297740, “Thiazolidine-2,4-diones derivatives as PPAR-γ agonists: synthesis, molecular docking, in vitro and in vivo antidiabetic activity with hepatotoxicity risk evaluation and effect on PPAR-γ gene expression” (Bioorg Med Chem Lett, 2014)
Calls of active or inactive are those of the source. No cut-off for these calls is given here.

Experiments:
Rattus norvegicus [1] = assay: Antidiabetic activity in streptozotocin-induced Albino Wistar rat diabetic model assessed as decrease in blood glucose level at 36 mg/kg, po measured after 15 days by glucose oxidase method; assay type: functional, organism-based; parameters: dose 36 mg/kg
Rattus norvegicus [2] = organism: Rattus norvegicus; assay: Reduction in streptozotocin-induced aspartate aminotransferase level in Albino Wistar rat diabetic model; assay type: functional, organism-based
Rattus norvegicus [3] = organism: Rattus norvegicus; assay: Reduction in streptozotocin-induced alanine transaminase level in Albino Wistar rat diabetic model; assay type: functional, organism-based
Rattus norvegicus [4] = organism: Rattus norvegicus; assay: Reduction in streptozotocin-induced alkaline phosphatase level in Albino Wistar rat diabetic model; assay type: functional, organism-based
Rattus norvegicus [5] = organism: Rattus norvegicus; assay: Toxicity in streptozotocin-induced in Albino Wistar rat diabetic model assessed as liver damage by Haematoxylin/Eosin staining-based microscopy; assay type: organism-based; conditions: in vivo
Rattus norvegicus [6] = organism: Rattus norvegicus; assay: Hepatotoxicity in streptozotocin-induced in Albino Wistar rat diabetic model assessed increase in sinusoidal dilatation by Haematoxylin/Eosin staining-based microscopy; assay type: toxicity, organism-based; conditions: in vivo
Rattus norvegicus [7] = organism: Rattus norvegicus; assay: Hepatotoxicity in streptozotocin-induced in Albino Wistar rat diabetic model assessed increase in portal triad Inflammation by Haematoxylin/Eosin staining-based microscopy; assay type: toxicity, organism-based; conditions: in vivo
Rattus norvegicus [8] = organism: Rattus norvegicus; assay: Hepatotoxicity in streptozotocin-induced in Albino Wistar rat diabetic model assessed as fatty changes in hepatocyte by Haematoxylin/Eosin staining-based microscopy; assay type: toxicity, organism-based; conditions: hepatocytes
Rattus norvegicus [9] = organism: Rattus norvegicus; assay: Hepatotoxicity in streptozotocin-induced in Albino Wistar rat diabetic model assessed as hepatocyte swelling by Haematoxylin/Eosin staining-based microscopy; assay type: toxicity, organism-based; conditions: hepatocytes
Rattus norvegicus [10] = organism: Rattus norvegicus; assay: Antidiabetic activity in Albino Wistar rat assessed as reduction of blood glucose level measured at 120 mins after glucose injection by oral glucose tolerance test; assay type: functional, organism-based
Rattus norvegicus [11] = organism: Rattus norvegicus; assay: Antidiabetic activity in Albino Wistar rat assessed as improvement in insulin resistance measured at 90 mins after insulin injection by insulin tolerance test; assay type: functional, organism-based
Rattus norvegicus [12] = organism: Rattus norvegicus; assay: Toxicity in Albino Wistar rat assessed as change in body weight relative to control; assay type: organism-based; conditions: in vivo
Rattus norvegicus [13] = assay: Antidiabetic activity in streptozotocin-induced Albino Wistar rat diabetic model assessed as improvement in body weight at 36 mg/kg, po measured after 15 days by glucose oxidase method; assay type: functional, organism-based; parameters: dose 36 mg/kg

Row | Activity (Rattus norvegicus [2]) | Activity (Rattus norvegicus [3]) | Activity (Rattus norvegicus [4]) | Compound | inhibition (Rattus norvegicus [1]) | Activity (Rattus norvegicus [5]) | Activity (Rattus norvegicus [6]) | Activity (Rattus norvegicus [7]) | Activity (Rattus norvegicus [8]) | Activity (Rattus norvegicus [9]) | other results
1 | – | – | – | O=C1NC(=O)C(CC2COc3ccc(F)cc3C2=O)S1 (stereo unspecified) | Active | – | – | – | – | – | –
2 | Active | Active | Active | COc1ccc2occ(CC3SC(=O)NC3=O)c(=O)c2c1 (stereo unspecified) | Active | Non-toxic | Non-toxic | Non-toxic | Non-toxic | Non-toxic | –
3 | – | – | – | Cc1ccc2occ(CC3SC(=O)NC3=O)c(=O)c2c1 (stereo unspecified) | Active | – | – | – | – | – | –
4 | – | – | – | O=C1NC(=O)C(CC2COc3ccc(Br)cc3C2=O)S1 (stereo unspecified) | Active | – | – | – | – | – | –
5 | Active | Active | Active | O=C1NC(=O)C(Cc2coc3ccc(Br)cc3c2=O)S1 (stereo unspecified) | Active | Toxic | Toxic | Non-toxic | Non-toxic | Non-toxic | –
6 | Active | Active | Active | O=C1NC(=O)C(Cc2coc3ccc(Cl)cc3c2=O)S1 (stereo unspecified) | Active | Non-toxic | Non-toxic | Non-toxic | Non-toxic | Non-toxic | inhibition (Rattus norvegicus [10]): Active; Activity (Rattus norvegicus [11]): Active; Activity (Rattus norvegicus [12]): Non-toxic; Activity (Rattus norvegicus [13]): Active
7 | – | – | – | COc1cccc2c1C(=O)C(CC1SC(=O)NC1=O)CO2 (stereo unspecified) | Active | – | – | – | – | – | –
8 | – | – | – | Cc1ccc2c(c1)C(=O)C(CC1SC(=O)NC1=O)CO2 (stereo unspecified) | Active | – | – | – | – | – | –
9 | Active | Active | Active | O=C1NC(=O)C(Cc2coc3ccc(F)cc3c2=O)S1 (stereo unspecified) | Active | Toxic | Toxic | Non-toxic | Non-toxic | Non-toxic | –
10 | Active | Active | Active | O=C1NC(=O)C(Cc2coc3c(Cl)cc(Cl)cc3c2=O)S1 (stereo unspecified) | Active | Toxic | Toxic | Non-toxic | Non-toxic | Non-toxic | –
11 | – | – | – | O=C1NC(=O)C(CC2COc3c(Cl)cc(Cl)cc3C2=O)S1 (stereo unspecified) | Active | – | – | – | – | – | –
12 | – | – | – | O=C1NC(=O)C(Cc2coc3ccccc3c2=O)S1 (stereo unspecified) | Active | – | – | – | – | – | –
13 | – | – | – | COc1ccc2c(c1)C(=O)C(CC1SC(=O)NC1=O)CO2 (stereo unspecified) | Active | – | – | – | – | – | –
14 | – | – | – | CCc1ccc(CCOc2ccc(CC3SC(=O)NC3=O)cc2)nc1 (stereo unspecified) [PIOGLITAZONE] | – | – | Toxic | Non-toxic | Non-toxic | Non-toxic | –
